# Marks after values point to notes of the source that are not given here.
# How the values were obtained:
# [1] = tested on: Activating transcription factor-3; assay: Activating transcription factor-3 immunofluorescence; assay type: in vivo, CD-1 mice; settings: for Anti-ATF-3: SG-fed vs control
# Procedure: (§1) The synthetic SG was mixed with finely ground Purina Chow mouse pellets (Mouse Diet™, Purina) to create the experimental pellets with a SG content of 1000 µg per pellet. Dry materials were blended with a sterile silicon spatula. For every 5 g of standard feed, 2.5 mL of doubly-distilled water (dd)H2O was added and the dough was kneaded and round up into pellets. A single sterol glucoside containing pellet was placed in the feeding tray each morning before the addition of regular mouse chow (ad libitum). All experimental pellets were entirely consumed by the mice each day. Control mice were fed standard mouse chow pellets of identical weight with no additives. SG feeding was conducted daily for 15 weeks and mice were behaviorally monitored until sacrifice at 35 weeks (time point 1) or 52 weeks (time point 2).
# Tissue-mounted slides were processed for fluorescence microscopy as follows: Sections were rinsed in coplin jars for 45 minutes at room temperature (RT) in three changes of PBS. Sections were then incubated at RT for 30 minutes in a blocking permeabilization solution made of 5% normal goat serum (NGS), 5% normal rabbit serum (NRS) or 5% BlokHen II (Aves Labs, Inc., Tigard, OR), 0.05% Triton X-100 and PBS. Subsequently, the blocking solution was tipped off and the slides were rinsed in PBS for 2 minutes. […]
# Cytochrome c oxidase = Cytochrome c oxidase histochemistry; assay type: in vivo, CD-1 mice; settings: for Cytochrome c oxidase activity: SG-fed vs control
# Procedure: as §1
# Tissue-mounted slides were processed for […] in a manner adapted from Seligman et al. (1968) and Wong-Riley (1979). Sections were rinsed in coplin jars for 15 minutes at RT in three changes of PBS and subsequently incubated with a media comprised of 50 mg of 3,3'-diaminobenzidine tetrahydrochloride (DAB) (DAB substrate system, Vector Laboratories, Burlingame, CA, USA), 90 mL 0.1M phosphate buffer, 20 mg cytochrome c (type III, Sigma-Aldrich Co., Oakville, ON, Canada), and 4 g of sucrose in a dish submerged in a water bath maintained at 37°C in the dark for 2 hours. The sections were monitored closely for the brown reaction product to appear within the tissue. Once a medium-brown color was achieved, slides were removed from the incubation media and rinsed for 15 minutes in three changes of PBS to stop the reaction. This was followed with a 2 minutes rinse in distilled water to remove residue from the slides. The slides were dried under a fume hood and cover-slipped with Entellen (Merck, Darmstadt, Germany).
# The numbers of immunoreactive somata or inclusions were counted across the ventral horn of the spinal cord, across brain hemispheres, or per dorsal or ventral root with the 40x objective lens in a 600 µm / 600 µm area within region perimeters defined by a mouse brain atlas (2001). For each animal, eight cross-sections per spinal cord or brain region were studied. […] For quantification of the level of mitochondrial activity (cytochrome c oxidase labelling) in the lumbar spinal cord or tyrosine hydroxylase immunoreactivity in the substantia nigra pars compacta and striatal sections, images captured using the Motic B5 Professional Series 3.0 microscope (Motic Instruments Inc., Richmond, ON) and analyzed using Motic B5 Professional, Motic Images Advanced 3.0 (Motic Instruments Inc., Richmond, ON) were scanned into a TIFF format file and analysed using the NIH Image J 1.37 software to measure density levels of antibody labelling. […]
# [2] = SG-fed group over time, 35 to 52 wk
smiles,measurement,setting,value
CCC(C=CC(C)C1CCC2C3CC=C4CC(OC5OC(CO)C(O)C(O)C5O)CCC4(C)C3CCC12C)C(C)C (stereo not shown) [SG],Anti-ATF-3 immunoreactive cells,[1]; [2],Anti-ATF-3 immunoreactive cells (SG-fed group over time): -48%***
same,Anti-ATF-3,"[1]; time-point 1, 35 wk",Anti-ATF-3:+242%***
same,Anti-ATF-3,"[1]; time-point 2, 52 wk",Anti-ATF-3:+101%**
same,"Cytochrome c oxidase Activity, Optical density",Cytochrome c oxidase; [2],Optical density (SG-fed group over time): -36%**
same,Cytochrome c oxidase activity,Cytochrome c oxidase; 35 or 52 weeks,no significant differences
same,Cytochrome c oxidase activity,"Cytochrome c oxidase; time-point 1, 35 wk",(ns)
same,Cytochrome c oxidase activity,"Cytochrome c oxidase; time-point 2, 52 wk",(ns)
